From ChEMBL document CHEMBL1201862, “PubChem BioAssay data set” (2004)
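Cultured in 96-well plates, cells were exposed to test compound for 48 hours across five concentrations. At the GI50, growth is halved.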 The source made the active and inactive calls. Rule as the data show it: active = GI50 up to about 1.1 µM and inactive = higher. Where a SMILES comes first, the peptide text is derived from it. The star is where a group is joined. OSu = O=C1CCC(=O)N1O*; OBn = c1ccc(CO*)cc1; Bn = c1ccc(C*)cc1

Legend:
Assay in all cases: NCI tumour cell line growth inhibition, 48 h
[1] = system: CCRF-CEM
[2] = system: SNB-19
[3] = system: KM12
[4] = system: CAKI-1
[5] = system: M14
[6] = system: LOX IMVI
[7] = system: OVCAR-8
[8] = system: OVCAR-3
[9] = system: NCI-H522
[10] = system: COLO 205
[11] = system: NCI-H226
[12] = system: A549
[13] = system: SK-MEL-28
[14] = system: 786-0
[15] = system: HOP-92
[16] = system: SNB-75
[17] = system: U-251
[18] = system: MCF7
[19] = system: NCI/ADR-RES
[20] = system: BT-549

Row | Structure (SMILES) | GI50 [1] | GI50 [2] | GI50 [3] | GI50 [4] | GI50 [5] | GI50 [6] | GI50 [7] | GI50 [8] | GI50 [9] | GI50 [10] | GI50 [11] | GI50 [12] | GI50 [13] | GI50 [14] | GI50 [15] | GI50 [16] | GI50 [17] | GI50 [18] | GI50 [19] | GI50 [20]
1 | CCOC(=O)c1cc2c(nc1N)-c1ncccc1CC2 | 20.4 µM (inactive) | 59.7 µM (inactive) | 49.9 µM (inactive) | > 100 µM (inactive) | > 100 µM (inactive) | 65.6 µM (inactive) | 83.6 µM (inactive) | 18.5 µM (inactive) | 33.4 µM (inactive) | 31.5 µM (inactive) | 66.2 µM (inactive) | 38.5 µM (inactive) | 36.6 µM (inactive) | 82.2 µM (inactive) | > 100 µM (inactive) | > 100 µM (inactive) | 43.8 µM (inactive) |  |  | 
2 | C=CCC1NCCC2=C1C(S(=O)(=O)c1ccc(C)cc1)c1ccccc12 (stereo unspecified) | 7.96 µM (inactive) | 16.5 µM (inactive) | 9.46 µM (inactive) | 6.92 µM (inactive) | 11.8 µM (inactive) | 8.91 µM (inactive) | 14.3 µM (inactive) | 12.5 µM (inactive) | 10.1 µM (inactive) | 2 µM (inactive) | 16.8 µM (inactive) | 15.1 µM (inactive) | 12.4 µM (inactive) | 12.9 µM (inactive) | 9.95 µM (inactive) | 5.64 µM (inactive) | 11.5 µM (inactive) | 7.13 µM (inactive) | 12.6 µM (inactive) | 
3 | CC1CCC(=O)NCCCCC(=O)N1 (stereo unspecified) | > 100 µM (inactive) | > 100 µM (inactive) | > 100 µM (inactive) | > 100 µM (inactive) | > 100 µM (inactive) | > 100 µM (inactive) | > 100 µM (inactive) | > 100 µM (inactive) | > 100 µM (inactive) | > 100 µM (inactive) | > 100 µM (inactive) | > 100 µM (inactive) | > 100 µM (inactive) | > 100 µM (inactive) | > 100 µM (inactive) | 43.3 µM (inactive) | > 100 µM (inactive) |  |  | 
4 | CN1CCCNCCN(CCc2ccccn2)CCCN(C)CC1 | > 41.9 µM (inactive) | > 100 µM (inactive) | > 67.6 µM (inactive) | > 100 µM (inactive) | > 95.7 µM (inactive) | > 50.1 µM (inactive) | > 100 µM (inactive) | > 100 µM (inactive) | > 100 µM (inactive) | > 43.5 µM (inactive) | > 100 µM (inactive) | > 100 µM (inactive) | > 100 µM (inactive) | 24.2 µM (inactive) | > 100 µM (inactive) | > 100 µM (inactive) | > 94.6 µM (inactive) |  |  | 
5 | Cc1ccc(S(=O)(=O)NC(=O)Nc2ccc(C(=O)O)c(O)c2)cc1 | > 100 µM (inactive) | > 100 µM (inactive) | > 100 µM (inactive) | > 100 µM (inactive) | > 100 µM (inactive) | > 100 µM (inactive) | > 100 µM (inactive) | > 100 µM (inactive) |  | > 100 µM (inactive) | > 100 µM (inactive) | > 100 µM (inactive) |  | > 100 µM (inactive) | > 100 µM (inactive) | > 100 µM (inactive) | > 100 µM (inactive) | > 100 µM (inactive) | > 100 µM (inactive) | 
6 | CCCCN(CCCC)CC(O)c1cc(-c2ccc(C(F)(F)F)cc2)nc(-c2ccc(C(F)(F)F)cc2)c1 (stereo unspecified) | 50.9 µM (inactive) | > 100 µM (inactive) |  | > 100 µM (inactive) | 91.4 µM (inactive) | 35 µM (inactive) | > 100 µM (inactive) | 94.8 µM (inactive) | 75.3 µM (inactive) | 79.8 µM (inactive) |  |  | > 100 µM (inactive) | 61.1 µM (inactive) | 61.5 µM (inactive) | 13.8 µM (inactive) | > 100 µM (inactive) | > 10 µM (inactive) | > 100 µM (inactive) | 
7 | CCN(CCCl)CCNc1c2ccccc2nc2ccc(OC)cc12 | 0.104 µM (active) | 1.41 µM (inactive) | 0.603 µM (active) | 0.361 µM (active) | 1.18 µM (inactive) | 0.31 µM (active) | 0.263 µM (active) | 1.38 µM (inactive) | 0.33 µM (active) | 0.136 µM (active) | 0.6 µM (active) | 0.557 µM (active) | 1.52 µM (inactive) | 0.254 µM (active) | 0.822 µM (active) | 0.966 µM (active) | 0.906 µM (active) | 0.378 µM (active) | 1.35 µM (inactive) | 
8 | CC(=O)CCCCCCCCCCCC[C@@H]1CC[C@H](C)[C@H](O)N1 | > 100 µM (inactive) | > 100 µM (inactive) | > 100 µM (inactive) | > 100 µM (inactive) | 53.5 µM (inactive) | 40.3 µM (inactive) | > 100 µM (inactive) | > 100 µM (inactive) | > 100 µM (inactive) | > 100 µM (inactive) | > 100 µM (inactive) | > 100 µM (inactive) | > 100 µM (inactive) | > 100 µM (inactive) | > 100 µM (inactive) | 89.1 µM (inactive) | > 100 µM (inactive) |  |  | 
9 | Cc1n(CC(C)C)c2c([n+]1C)C(=O)c1ccccc1C2=O | 0.122 µM (active) | 0.0716 µM (active) | 0.205 µM (active) | 1.17 µM (inactive) | 0.27 µM (active) | 0.0746 µM (active) | 0.0265 µM (active) | < 0.01 µM (active) | 0.0176 µM (active) | < 0.0152 µM (active) | 0.311 µM (active) | 0.114 µM (active) | 1.06 µM (active) | 0.578 µM (active) | 0.641 µM (active) | 0.416 µM (active) | 0.0588 µM (active) |  | 2.43 µM (inactive) | 0.227 µM (active)
10 | O=C(O)CCC(NC(=O)c1ccc(CNc2nc3ccccc3nc2C(=O)O)cc1)C(=O)O (stereo unspecified) | > 100 µM (inactive) | > 100 µM (inactive) | > 100 µM (inactive) |  | > 100 µM (inactive) | > 100 µM (inactive) | > 100 µM (inactive) | > 100 µM (inactive) |  | > 100 µM (inactive) | > 100 µM (inactive) | > 100 µM (inactive) | > 100 µM (inactive) | > 100 µM (inactive) |  | > 100 µM (inactive) | > 100 µM (inactive) | > 100 µM (inactive) | > 100 µM (inactive) | 
11 | NC(=O)N/N=C(\Cc1nc2ccc(C(=O)c3ccccc3)cc2nc1O)C(=O)Nc1ccc(Br)cc1 | > 100 µM (inactive) | > 100 µM (inactive) | > 100 µM (inactive) | > 100 µM (inactive) | > 100 µM (inactive) | > 100 µM (inactive) | > 100 µM (inactive) | > 100 µM (inactive) | > 100 µM (inactive) |  | 86.3 µM (inactive) | > 100 µM (inactive) | > 100 µM (inactive) | > 100 µM (inactive) | > 100 µM (inactive) | > 100 µM (inactive) | > 100 µM (inactive) |  |  | 
12 | O=C(Nc1ccc([N+](=O)[O-])cc1)C1C(=O)C(=O)N(c2ccc([N+](=O)[O-])cc2)C1=O (stereo unspecified) | > 100 µM (inactive) | > 100 µM (inactive) | > 100 µM (inactive) | 74.6 µM (inactive) | 16.2 µM (inactive) | 16.1 µM (inactive) | > 100 µM (inactive) | > 100 µM (inactive) | 55.8 µM (inactive) | 35.8 µM (inactive) | > 100 µM (inactive) | > 100 µM (inactive) | > 100 µM (inactive) | 67.1 µM (inactive) | > 100 µM (inactive) | > 100 µM (inactive) | > 100 µM (inactive) |  |  | 
13 | Oc1ccc2ccccc2c1/N=N/c1ccc(/N=N/c2ccccc2)cc1 | > 100 µM (inactive) | > 100 µM (inactive) | 84.9 µM (inactive) | > 100 µM (inactive) | > 100 µM (inactive) | > 100 µM (inactive) | > 100 µM (inactive) | > 100 µM (inactive) | 86.3 µM (inactive) | > 100 µM (inactive) | > 100 µM (inactive) | 74.5 µM (inactive) | > 100 µM (inactive) | > 100 µM (inactive) |  | 70.1 µM (inactive) | 46.3 µM (inactive) |  | > 100 µM (inactive) | > 100 µM (inactive)
14 | CC(C)CC(NC(=O)C(N)CCC(=O)OCc1ccccc1)C(=O)NC(COCc1ccccc1)C(=O)NC(Cc1ccccc1)C(=O)ON1C(=O)CCC1=O (stereo unspecified) (H-E(OBn)LS(Bn)F-OSu; configuration not given here) | 26.6 µM (inactive) | 30.5 µM (inactive) | 32.1 µM (inactive) | 28.8 µM (inactive) | 33.4 µM (inactive) | 18.2 µM (inactive) | 31.6 µM (inactive) |  | 18.5 µM (inactive) |  |  | 33.6 µM (inactive) | 22.1 µM (inactive) | 39.1 µM (inactive) | 15 µM (inactive) | 35.7 µM (inactive) | 24.4 µM (inactive) | 27.4 µM (inactive) | 28.5 µM (inactive) | 
15 | Cc1c(-c2coc(-c3ccccc3)n2)c(=O)n(-c2ccccc2)n1C | > 100 µM (inactive) | > 100 µM (inactive) | > 100 µM (inactive) | 0.184 µM (active) | > 100 µM (inactive) | > 100 µM (inactive) | 44.6 µM (inactive) | > 100 µM (inactive) | 29.1 µM (inactive) | 78.3 µM (inactive) | 94.4 µM (inactive) | > 100 µM (inactive) | > 100 µM (inactive) | > 100 µM (inactive) | > 100 µM (inactive) | > 100 µM (inactive) | > 100 µM (inactive) |  |  | 
16 | CCC(=O)N(c1ccccc1)C(C)CN1CCC(O)(c2cccc(C(F)(F)F)c2)CC1 (stereo unspecified) | 19.9 µM (inactive) | > 100 µM (inactive) | 35.2 µM (inactive) | > 100 µM (inactive) | 16.1 µM (inactive) | 18.9 µM (inactive) | 38.1 µM (inactive) | 45.6 µM (inactive) | 20.2 µM (inactive) | 14.7 µM (inactive) | 30.2 µM (inactive) | 39 µM (inactive) | 23.1 µM (inactive) | 18.5 µM (inactive) | 22.8 µM (inactive) | 32.8 µM (inactive) | 37.2 µM (inactive) |  | 19.5 µM (inactive) | 
